Results taken from patent US11021444B2, “Antiviral compounds” (priority 2013, dated 2021).

Tests used:
[1] = test system: Respiratory Syncytial Virus (RSV) long strain; test: microbe, parasite or virus in culture; assay type: cell-based; details: human respiratory syncytial virus, HEp-2, 120 h, read-out: 50% effective concentration (EC50), HEp-2 cells infected with RSV long strain, 5 days, CCK-8 readout; Tables A and B list compounds by EC50 band
Experimental: (§1) CPE reduction assays are performed as described by Sidwell and Huffman et al., Appl. Microbiol. (1971) 22(5):797-801 with slight modifications. HEp-2 cells (ATCC #, CCL-23) are seeded at a density of 1,500 cells/30 μl/well into the 384-well cell plate(s) (Corning #3701) one day prior to the assay. Compounds are added into 384-well cell plates by Labcyte POD 810 Plate Assembler system. Each of the test compounds is provided to duplicate wells of a 384-well cell plate at final concentrations starting from 100 μM or 1 μM using 1/3 stepwise dilutions for 9 points. Quick-thaw Respiratory Syncytial Virus (RSV) long strain (ATCC #VR-26) stock in a 37° C. water bath. Place on ice until ready to use. Viruses are diluted to the concentration of 100 TCID50/30 μL with medium and 30 μl diluted RSV are added into related wells of 384-well cell plates. For each plate, sixteen wells are set aside as uninfected, untreated cell controls (CC), and nine wells per test plate receive virus only as a control for virus replication (VC). The final DMSO concentration of all wells is 1%. Place the plates at 37° C., 5% CO2 for 5 days.
After 5 days incubation, observe the CPE of cells in all wells. […] Six μl of cell counting kit-8 reagent (CCK-8, Dojindo Molecular Technologies Inc., CK04-20) are added to each well, which allows colorimetric assays to determine the number of viable cells through the dehydrogenase activity detection. After 3-4 hour incubation, the absorbance of each well is measured with a spectrophotometric plate reader at 450 nm wavelength, using a 630 nm filter as background according to manufacturer's instruction.

[2] = Cytotoxicity Determination (CCK-8, without addition of virus); assay type: cell-based; details: human, 50% cytotoxicity concentration (CC50)
Experimental: as §1
In order to determine the compound cytotoxicity, in parallel, each of the compounds is applied to duplicate wells in a 384-well cell plate at serial final concentrations starting from 100 μM using 1/2 stepwise dilutions for 7 points without addition of virus. Incubate the cells at 37° C., 5% CO2 for 5 days. Add 6 μL CCK-8 into each well and incubate in a CO2 incubator at 37° C. for 3-4 hours.

recombinant RSV complex = recombinant RSV complex (Human respiratory syncytial virus A, UniProt P28887); test: RSV Polymerase Inhibition Assay; assay type: biochemical
Sequence of recombinant RSV complex (P28887 whole entry): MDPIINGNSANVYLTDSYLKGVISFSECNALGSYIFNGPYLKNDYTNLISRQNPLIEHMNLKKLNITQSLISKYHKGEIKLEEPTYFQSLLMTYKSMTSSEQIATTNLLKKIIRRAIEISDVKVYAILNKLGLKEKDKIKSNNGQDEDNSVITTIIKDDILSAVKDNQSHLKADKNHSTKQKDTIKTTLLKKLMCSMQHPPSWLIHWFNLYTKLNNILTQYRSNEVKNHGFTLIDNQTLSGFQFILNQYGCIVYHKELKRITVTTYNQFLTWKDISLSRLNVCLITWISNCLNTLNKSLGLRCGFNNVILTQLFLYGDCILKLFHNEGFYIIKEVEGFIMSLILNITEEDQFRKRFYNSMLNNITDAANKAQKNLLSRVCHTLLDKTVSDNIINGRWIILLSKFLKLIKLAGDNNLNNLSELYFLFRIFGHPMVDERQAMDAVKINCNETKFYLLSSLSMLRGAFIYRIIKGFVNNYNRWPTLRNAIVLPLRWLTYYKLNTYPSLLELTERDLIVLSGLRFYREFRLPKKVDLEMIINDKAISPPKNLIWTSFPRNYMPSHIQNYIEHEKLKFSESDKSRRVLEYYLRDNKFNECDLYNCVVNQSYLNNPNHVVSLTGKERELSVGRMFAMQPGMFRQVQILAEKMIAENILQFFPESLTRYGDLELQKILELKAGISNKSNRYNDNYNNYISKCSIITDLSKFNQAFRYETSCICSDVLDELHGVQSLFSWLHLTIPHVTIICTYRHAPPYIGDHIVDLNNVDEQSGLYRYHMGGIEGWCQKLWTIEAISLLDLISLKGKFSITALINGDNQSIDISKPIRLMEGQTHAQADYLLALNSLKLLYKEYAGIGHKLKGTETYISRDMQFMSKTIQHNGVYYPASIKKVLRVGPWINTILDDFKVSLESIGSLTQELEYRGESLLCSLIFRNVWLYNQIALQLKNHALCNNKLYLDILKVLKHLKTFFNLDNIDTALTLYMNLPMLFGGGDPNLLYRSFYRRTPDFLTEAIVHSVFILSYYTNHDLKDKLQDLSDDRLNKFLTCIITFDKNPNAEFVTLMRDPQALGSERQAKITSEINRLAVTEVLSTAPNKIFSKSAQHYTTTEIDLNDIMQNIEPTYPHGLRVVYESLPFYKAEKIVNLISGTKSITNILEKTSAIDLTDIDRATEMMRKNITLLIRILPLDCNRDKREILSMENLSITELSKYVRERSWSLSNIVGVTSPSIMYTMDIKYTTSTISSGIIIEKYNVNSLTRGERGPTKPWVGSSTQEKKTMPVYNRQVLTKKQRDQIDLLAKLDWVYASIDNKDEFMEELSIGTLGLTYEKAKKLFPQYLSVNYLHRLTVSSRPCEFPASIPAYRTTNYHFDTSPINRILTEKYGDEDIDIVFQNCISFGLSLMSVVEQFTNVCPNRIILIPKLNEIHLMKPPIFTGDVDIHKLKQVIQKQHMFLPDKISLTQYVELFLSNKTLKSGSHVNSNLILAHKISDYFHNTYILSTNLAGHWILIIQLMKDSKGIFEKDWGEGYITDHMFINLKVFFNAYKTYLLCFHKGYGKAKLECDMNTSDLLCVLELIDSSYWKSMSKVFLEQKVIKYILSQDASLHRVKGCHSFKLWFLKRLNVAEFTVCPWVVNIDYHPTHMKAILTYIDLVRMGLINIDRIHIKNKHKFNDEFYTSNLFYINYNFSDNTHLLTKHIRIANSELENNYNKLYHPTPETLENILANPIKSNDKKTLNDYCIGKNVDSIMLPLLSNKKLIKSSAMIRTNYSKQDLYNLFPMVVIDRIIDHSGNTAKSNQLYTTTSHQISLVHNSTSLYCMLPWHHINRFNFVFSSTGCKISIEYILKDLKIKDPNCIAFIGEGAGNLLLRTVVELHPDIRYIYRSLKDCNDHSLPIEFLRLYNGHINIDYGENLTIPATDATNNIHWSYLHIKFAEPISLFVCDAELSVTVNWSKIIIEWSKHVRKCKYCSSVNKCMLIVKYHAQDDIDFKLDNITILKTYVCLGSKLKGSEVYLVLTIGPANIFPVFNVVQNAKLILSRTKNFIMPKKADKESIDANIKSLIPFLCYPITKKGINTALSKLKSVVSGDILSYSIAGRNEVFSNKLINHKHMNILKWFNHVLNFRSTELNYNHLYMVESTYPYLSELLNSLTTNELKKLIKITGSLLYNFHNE
Sequence of recombinant RSV complex (P03421 whole entry, further chain): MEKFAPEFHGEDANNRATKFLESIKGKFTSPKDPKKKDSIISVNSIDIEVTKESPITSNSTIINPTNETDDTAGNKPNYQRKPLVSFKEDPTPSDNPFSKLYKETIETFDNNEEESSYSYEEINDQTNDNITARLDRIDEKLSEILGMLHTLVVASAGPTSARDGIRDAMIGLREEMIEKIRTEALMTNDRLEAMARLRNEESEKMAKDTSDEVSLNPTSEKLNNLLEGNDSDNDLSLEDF
Experimental: Standard RSV polymerase assays were conducted in the presence of 10 nM recombinant RSV complex in a reaction buffer containing Tris-HCl pH7.5, 6 mM MgCl2, and other additives and substrates including RNA oligonucleotides and radionucleotides. Standard reactions were incubated in 96-well plate format for 2 h at 30° C., in the presence of increasing concentration of inhibitor. The reaction was stopped with 90 μL of 0.1M EDTA, and the reaction product was transferred to a “reading” 96-well plate. After washing of the plate, radiolabeled RNA products were detected according to standard procedures with a Trilux Topcount scintillation counter.

| Structure (SMILES) | EC50 [1] [µM] | CC50 at 5 days [2] [µM] | IC50 (recombinant RSV complex) [µM] |
| --- | --- | --- | --- |
| COc1ccc(C(O)(CNC(=O)c2ccc3ncsc3c2)C(F)(F)F)nc1-c1ccc(F)c(Cl)c1 (stereo not drawn) [Compound 254] | 1 to 50 | 10 to 100 | < 1 |
| COc1cc(C(=O)NC[C@@](O)(c2cc3c(c(-c4ccc(C#N)cc4)n2)OC[C@]3(C)N)C(F)(F)F)ccc1OCCO [Compound 604b] | 1 to 50 | > 100 | < 10 |
| COc1cc(C(=O)NC[C@@](O)(c2cc(C(C)(C)N)cc(-c3ccc(F)c(Cl)c3)n2)C(F)(F)F)ccc1OCCO [Compound 549] | 1 to 50 | 10 to 100 | < 1 |
| COc1cc(C(=O)NCC(C)(O)c2ccc(OC)c(-c3ccc(F)c(Br)c3)n2)ccc1OCCO (stereo not drawn) [Compound 167] | < 1 | 10 to 100 | < 1 |
| COc1cc(C(=O)NCC(O)(CN)c2ccc(OC)c(-c3ccc(F)c(Cl)c3)n2)ccc1OCCO (stereo not drawn) [Compound 179] | 1 to 50 | > 100 | < 1 |
| COc1cc(C(=O)NCC(=O)c2cc3c(c(-c4ccc(F)c(Cl)c4)n2)OCC3(C)C)ccc1OC1CCNC1=O (stereo not drawn) [Compound 217] | < 1 | 10 to 100 | < 1 |
| COc1cc(C(=O)NCC(O)(c2cc(C(C)(C)N)cc(-c3ccc(F)c(Cl)c3)n2)C(F)(F)F)ccc1O[C@@H]1CCNC1=O (stereo partly drawn) [Compound 285] | < 1 | 10 to 100 | < 1 |
| COc1ccc(C(O)(CNC(=O)c2ccc(OC3CCNC3=O)cc2)C(F)(F)F)nc1-c1ccc(F)c(Cl)c1 (stereo not drawn) [Compound 261] | < 1 | 10 to 100 | < 1 |
| COc1cc(C(=O)NCC(C)(C)c2ccc(OC)c(-c3ccc(F)c(Cl)c3)n2)ccc1OCCO [Compound 368] | < 1 | 10 to 100 | < 100 |
| COc1cc(C(=O)NCC(O)(CN2CCNCC2=O)c2ccc(OC)c(-c3ccc(F)c(Cl)c3)n2)ccc1OCCO (stereo not drawn) [Compound 196] | 1 to 50 | > 100 | < 1 |
| COc1cc(C(=O)NCC(C)(O)c2cc3c(c(-c4ccc(F)c(Cl)c4)n2)OCC3(C)O)ccc1OC1CC1 (stereo not drawn) [Compound 475] | < 1 | 10 to 100 | < 1 |
| COc1cc(C(=O)NCC(O)(c2ccc(OC)c(-c3ccc(F)c(Cl)c3)n2)C2CNC2)ccc1OC1CC1 (stereo not drawn) [Compound 463] | 1 to 50 | 10 to 100 | < 1 |
| COc1cc(C(=O)NCC(O)(c2cn(C)nn2)c2ccc(OC)c(-c3ccc(F)c(Cl)c3)n2)ccc1OCCO (stereo not drawn) [Compound 199] | < 1 | > 100 | < 1 |
| COc1cc(C(=O)NC[C@@](O)(c2cc3c(c(-c4ccc(F)cc4)n2)OCC3(C)CN)C(F)(F)F)ccc1OCCO (stereo partly drawn) [Compound 633a] | 1 to 50 | 10 to 100 | < 1 |
| COc1ccc(C(O)(CNC(=O)c2ccc3ncoc3c2)C(F)(F)F)nc1-c1ccc(F)c(Cl)c1 (stereo not drawn) [Compound 266] | 1 to 50 | 10 to 100 | < 1 |
| CC(C)(N)c1cc(-c2ccc(F)cc2)nc(C(O)(CNC(=O)c2ccc3c(c2)CNC(=O)N3)C(F)(F)F)c1 (stereo not drawn) [Compound 639] | 1 to 50 | 10 to 100 | < 1 |
| COc1cc(C(=O)NCC(O)(c2cc(C(C)(C)N)cc(-c3ccc(I)nc3)n2)C(F)(F)F)ccc1OC1CC1 (stereo not drawn) [Compound 557] | < 1 | 10 to 100 | < 1 |
| COc1ccc(C(O)(CNC(=O)c2ccc3ncn(C)c3c2)C(F)(F)F)nc1-c1ccc(F)c(Cl)c1 (stereo not drawn) [Compound 264] | 1 to 50 | 10 to 100 | < 1 |
| COCC(C)(NC(C)=O)c1cc(-c2ccc(F)c(Cl)c2)nc(C(O)(CNC(=O)c2ccc(OC3CC3)c(OC)c2)C(F)(F)F)c1 (stereo not drawn) [Compound 537] | < 1 | 10 to 100 | < 1 |
